Laboratory results reported in ChEMBL document CHEMBL5579899, “Discovery and In Vivo Exploration of 1,3,4-Oxadiazole and α-Fluoroacrylate Containing IL-17 Inhibitors” (J Med Chem, 2024).
pIC50: −log10 of the molar value. Values after ≈ are worked out from the molar mass of the structure shown.

Experiments:
[1] = Apparent permeability coefficient of the compound across apical to basolateral side in dog MDCK cells by high-throughput analysis; assay type: ADME, cell-based, Canis lupus familiaris
[2] = Plasma protein binding in human assessed as unbound fraction; assay type: ADME, cell-free
[3] = Plasma protein binding in rat assessed as unbound fraction; assay type: ADME, cell-free
[4] = Plasma protein binding in dog assessed as unbound fraction; assay type: ADME, cell-free, Canis lupus familiaris
[5] = Inhibition of biotinylated human IL-17A/AF647-labeled human IL-17RA protein-protein interaction preincubated for 30 mins with compound followed by addition of AF647-labeled human IL-17RA incubated for 90 min by TR-FRET assay
[6] = Inhibition of IL-6 production in IL-17/TNF-alpha stimulated human NHDF cells incubated for 24 hrs by ELISA; assay type: functional, cell-based
[7] = Lipophilicity, logD of compound at pH 7.4; assay type: physicochemical; settings: buffer
[8] = Equilibrium solubility of compound […] at pH 6.8 by high-throughput analysis; assay type: physicochemical
[9] = Metabolic stability in rat liver microsomes assessed as intrinsic clearance; assay type: ADME, Microsome; settings: read-out: CLH
[10] = Metabolic stability in human liver microsomes assessed as intrinsic clearance; assay type: ADME, Microsome; settings: read-out: CLH
[11] = AUC in Sprague-Dawley rat at 3 mg/kg,po measured upto 24 hrs by LC-MS/MS analysis; assay type: ADME, organism-based; settings: in vivo, po, 3 mg/kg, 24 h
[12] = Oral bioavailability in Sprague-Dawley rat at 3 mg/kg measured upto 24 hrs by LC-MS/MS analysis; assay type: ADME, organism-based; settings: in vivo, po, 3 mg/kg, 24 h
[13] = Metabolic stability in mouse liver microsomes assessed as intrinsic clearance; assay type: ADME, Microsome; settings: read-out: CLH
[14] = Metabolic stability in rat hepatocyte assessed as clearance measured per million cells; assay type: ADME, cell-based; settings: hepatocytes
[15] = Metabolic stability in dog hepatocyte assessed as clearance measured per million cells; assay type: ADME, cell-based, Canis lupus familiaris; settings: hepatocytes
[16] = Metabolic stability in dog liver microsomes assessed as intrinsic clearance; assay type: ADME, Canis lupus familiaris, Microsome; settings: read-out: CLH
[17] = Metabolic stability in human hepatocyte assessed as clearance measured per million cells; assay type: ADME, cell-based; settings: hepatocytes
[18] = Plasma protein binding in mouse assessed as unbound fraction; assay type: ADME, cell-free
[19] = Volume of distribution at steady state in C57BL/6 mouse at 1 mg/kg,iv or 3 mg/kg,po measured upto 24 hrs by LC-MS/MS analysis; assay type: ADME, organism-based; settings: in vivo, read-out: Vdss
[20] = Volume of distribution at steady state in Sprague-Dawley rat at 1 mg/kg,iv or 3 mg/kg,po measured upto 24 hrs by LC-MS/MS analysis; assay type: ADME, organism-based; settings: in vivo, read-out: Vdss
[21] = Volume of distribution at steady state in Beagle dog at 0.1 mg/kg,iv or 0.3 mg/kg,po measured upto 24 hrs by LC-MS/MS analysis; assay type: ADME, organism-based, Canis lupus familiaris; settings: in vivo, read-out: Vdss
[22] = Half life in C57BL/6 mouse at 1 mg/kg,iv or 3 mg/kg,po measured upto 24 hrs by LC-MS/MS analysis; assay type: ADME, organism-based; settings: in vivo
[23] = Half life in Sprague-Dawley rat at 1 mg/kg,iv or 3 mg/kg,po measured upto 24 hrs by LC-MS/MS analysis; assay type: ADME, organism-based; settings: in vivo
[24] = Half life in Beagle dog at 0.1 mg/kg,iv or 0.3 mg/kg,po measured upto 24 hrs by LC-MS/MS analysis; assay type: ADME, organism-based, Canis lupus familiaris; settings: in vivo
[25] = AUClast in C57BL/6 mouse at 3 mg/kg,po measured upto 24 hrs by LC-MS/MS analysis; assay type: ADME, organism-based; settings: in vivo
[26] = AUClast in Sprague-Dawley rat at 3 mg/kg,po measured upto 24 hrs by LC-MS/MS analysis; assay type: ADME, organism-based; settings: in vivo
[27] = AUClast in Beagle dog at 0.3 mg/kg,po measured upto 24 hrs by LC-MS/MS analysis; assay type: ADME, organism-based, Canis lupus familiaris; settings: in vivo
[28] = Oral bioavailability in C57BL/6 mouse at 3 mg/kg measured upto 24 hrs by LC-MS/MS analysis; assay type: ADME, organism-based; settings: in vivo
[29] = Oral bioavailability in Beagle dog at 0.3 mg/kg measured upto 24 hrs by LC-MS/MS analysis; assay type: ADME, organism-based, Canis lupus familiaris; settings: in vivo
[30] = test system: Rattus norvegicus; test: Antiarthritic activity in antigen-induced arthritis Lewis rat model assessed as reduction in knee swelling at po bid administrated for 4 days; assay type: functional, organism-based; settings: time 4.0 day
[31] = test system: Rattus norvegicus; test: Antiarthritic activity in antigen-induced arthritis Lewis rat model assessed as reduction in knee swelling at 1 mg/kg,po bid administrated for 4 days; assay type: functional; parameters: scale not given: the % may be the effect or the level left; settings: time 4 day
[32] = test system: Rattus norvegicus; test: Antiarthritic activity in antigen-induced arthritis Lewis rat model assessed as reduction in knee swelling at 30 mg/kg,po bid administrated for 4 days; assay type: functional; parameters: scale not given: the % may be the effect or the level left; settings: time 4 day
[33] = Inhibition of CXCL1 production in IL-17A stimulated rat IEC-6 cells; assay type: functional
[34] = Inhibition of CXCL1 production in IL-17A stimulated rat IEC-6 cells assessed as fold change in inhibition of CXCL1 release; assay type: functional
[35] = target: T1, Muscarinic acetylcholine receptor M2 (Homo sapiens, UniProt P08172); test: Inhibition of muscarinic M2 receptor (unknown origin); assay type: toxicity
T1 sequence (P08172 whole entry): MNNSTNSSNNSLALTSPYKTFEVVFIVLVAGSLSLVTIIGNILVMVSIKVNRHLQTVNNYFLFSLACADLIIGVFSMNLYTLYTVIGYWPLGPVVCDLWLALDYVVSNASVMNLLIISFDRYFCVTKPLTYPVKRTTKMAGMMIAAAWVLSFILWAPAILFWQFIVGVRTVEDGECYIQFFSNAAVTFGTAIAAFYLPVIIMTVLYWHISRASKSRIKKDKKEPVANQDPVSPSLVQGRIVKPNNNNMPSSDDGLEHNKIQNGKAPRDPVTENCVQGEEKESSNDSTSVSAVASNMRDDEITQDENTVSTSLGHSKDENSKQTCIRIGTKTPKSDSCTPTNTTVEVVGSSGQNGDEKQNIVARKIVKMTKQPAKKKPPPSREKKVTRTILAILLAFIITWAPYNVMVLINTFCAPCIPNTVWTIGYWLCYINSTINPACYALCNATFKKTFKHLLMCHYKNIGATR

[36] = target: Bile salt export pump (Homo sapiens, UniProt O95342); test: Inhibition of BSEP (unknown origin); assay type: toxicity
[37] = target: T2, Solute carrier organic anion transporter family member 1B1 (Homo sapiens, UniProt Q9Y6L6); test: Inhibition of OATP1B1 (unknown origin); assay type: toxicity
T2 sequence (Q9Y6L6 whole entry): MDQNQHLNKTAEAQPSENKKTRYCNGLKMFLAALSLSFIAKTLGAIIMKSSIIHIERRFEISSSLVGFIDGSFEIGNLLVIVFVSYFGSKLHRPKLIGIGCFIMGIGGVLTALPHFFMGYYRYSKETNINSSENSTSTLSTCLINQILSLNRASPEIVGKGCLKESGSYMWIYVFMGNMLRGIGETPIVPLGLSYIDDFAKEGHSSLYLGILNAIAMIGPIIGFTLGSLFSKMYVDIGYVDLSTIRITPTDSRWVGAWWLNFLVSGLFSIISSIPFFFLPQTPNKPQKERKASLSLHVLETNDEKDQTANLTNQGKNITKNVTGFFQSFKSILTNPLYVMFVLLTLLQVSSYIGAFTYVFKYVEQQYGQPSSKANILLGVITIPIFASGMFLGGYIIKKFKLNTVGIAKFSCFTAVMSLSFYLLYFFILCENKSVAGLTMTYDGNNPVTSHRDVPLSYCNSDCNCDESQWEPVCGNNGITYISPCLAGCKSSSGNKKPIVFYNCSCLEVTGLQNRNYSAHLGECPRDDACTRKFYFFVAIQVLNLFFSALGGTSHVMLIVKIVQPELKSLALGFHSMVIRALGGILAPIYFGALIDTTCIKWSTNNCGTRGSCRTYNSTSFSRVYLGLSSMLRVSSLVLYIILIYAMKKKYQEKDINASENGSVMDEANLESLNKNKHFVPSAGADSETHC

[38] = Toxicity in rat assessed as maximal tolerated dose administrated for 2 weeks; settings: in vivo
[39] = Toxicity in dog assessed as maximal tolerated dose administrated for 2 weeks; parameters: species or system Canis lupus familiaris; settings: in vivo
[40] = Toxicity in dog at >=200 mg/kg,administrated for 2 weeks; assay type: organism-based, Canis lupus familiaris; settings: in vivo, 336 h
[41] = Testicular toxicity in rat at >=100 mg/kg administration for 2 weeks; assay type: organism-based; settings: in vivo, 336 h
[42] = Testicular toxicity in dog >=75 mg/kg administration for 2 weeks; assay type: organism-based, Canis lupus familiaris; settings: in vivo, 336 h
[43] = Toxicity in dog assessed as morphological change in liver at 200 mg/kg administrated for 2 weeks; assay type: organism-based, Canis lupus familiaris; settings: in vivo, 336 h
[44] = Toxicity in dog assessed as increase in serum liver enzyme at 200 mg/kg administrated for 2 weeks; assay type: organism-based, Canis lupus familiaris; settings: in vivo, 336 h
[45] = GSH reactivity in aqueous buffer at pH 7.4 assessed as GSH-adduct formation by measuring half life; assay type: physicochemical

Sequence of Bile salt export pump (O95342 whole entry): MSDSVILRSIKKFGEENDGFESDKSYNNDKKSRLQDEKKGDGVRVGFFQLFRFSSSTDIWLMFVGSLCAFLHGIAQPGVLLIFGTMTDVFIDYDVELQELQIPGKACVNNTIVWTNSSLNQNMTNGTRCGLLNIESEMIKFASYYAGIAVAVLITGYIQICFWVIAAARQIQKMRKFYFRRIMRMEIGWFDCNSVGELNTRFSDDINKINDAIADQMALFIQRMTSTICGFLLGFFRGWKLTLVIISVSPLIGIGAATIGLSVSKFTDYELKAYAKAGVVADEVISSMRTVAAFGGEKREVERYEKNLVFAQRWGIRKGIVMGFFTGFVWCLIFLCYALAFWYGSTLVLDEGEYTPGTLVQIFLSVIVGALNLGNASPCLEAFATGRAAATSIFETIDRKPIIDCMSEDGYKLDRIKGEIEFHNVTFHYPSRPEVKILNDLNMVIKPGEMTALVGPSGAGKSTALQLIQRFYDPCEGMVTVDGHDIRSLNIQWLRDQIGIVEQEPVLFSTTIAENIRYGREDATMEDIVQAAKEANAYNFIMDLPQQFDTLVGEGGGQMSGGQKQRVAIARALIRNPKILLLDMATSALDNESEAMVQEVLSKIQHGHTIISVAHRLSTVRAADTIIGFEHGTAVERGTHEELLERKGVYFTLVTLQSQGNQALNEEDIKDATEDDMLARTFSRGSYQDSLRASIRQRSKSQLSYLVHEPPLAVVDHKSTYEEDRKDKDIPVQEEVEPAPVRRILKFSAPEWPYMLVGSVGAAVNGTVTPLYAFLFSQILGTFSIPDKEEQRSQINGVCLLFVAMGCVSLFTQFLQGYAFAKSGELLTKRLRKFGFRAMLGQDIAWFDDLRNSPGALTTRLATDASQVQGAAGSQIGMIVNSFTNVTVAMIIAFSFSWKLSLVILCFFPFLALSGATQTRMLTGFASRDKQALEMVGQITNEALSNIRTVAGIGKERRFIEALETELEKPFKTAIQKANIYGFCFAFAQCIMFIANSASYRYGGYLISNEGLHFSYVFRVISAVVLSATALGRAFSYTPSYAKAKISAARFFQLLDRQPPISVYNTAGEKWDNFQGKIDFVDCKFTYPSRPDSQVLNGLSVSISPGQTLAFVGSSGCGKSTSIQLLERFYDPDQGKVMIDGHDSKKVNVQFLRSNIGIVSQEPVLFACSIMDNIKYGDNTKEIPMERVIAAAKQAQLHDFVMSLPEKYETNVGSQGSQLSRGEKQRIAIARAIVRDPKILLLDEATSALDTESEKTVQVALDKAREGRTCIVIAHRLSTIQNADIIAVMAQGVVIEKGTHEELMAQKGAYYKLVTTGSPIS

**Q.** Which results are given for `COC[C@H](c1cnn2cc([C@@H](NC(=O)/C(F)=C\C3CC3)C3CCC(F)(F)CC3)nc2c1)N1C[C@@H](C(F)(F)F)NC1=O`?
**A.** Papp A→B [1]: 26 ×10⁻⁶ cm/s; fraction unbound [2]: 0.094; fraction unbound [3]: 0.075; fraction unbound [4]: 0.062; pIC50 [5]: 7.89; pIC50 ([6]; 24 h): 8.40; IC90 ([6]; time 24 hrs): 37 nM; logD [7]: 3.8; solubility [8]: 150 µM (≈ 88.3 µg/mL); microsomal CLint [9]: 38 µL/min/mg; microsomal CLint [10]: 58 µL/min/mg; AUC [11]: 0.024 µM·h; F [12]: 106%; microsomal CLint [13]: 25 µL/min/mg; CLH [14]: 4.2 µL; CLH [15]: 5.1 µL; microsomal CLint [16]: 18 µL/min/mg; CLH [17]: 58 µL; fraction unbound [18]: 0.048; Vd [19]: 3 L/kg; Vd [20]: 4.4 L/kg; Vd [21]: 3.7 L/kg; half-life [22]: 2 h; half-life [23]: 2.6 h; half-life [24]: 8.3 h; AUClast [25]: 0.53 µM·h; AUC(0-t) at 24 h [26]: 1.58 µM·h; AUClast [27]: 4.2 µM·h; F [28]: 41%; F [29]: 94%; Activity [30]: Dose-Dependent Effect; Activity [31]: 60%; Activity [32]: 97%; IC90 [33]: 45 nM; fold change (FC) [34]: 9; pIC50 [35]: 4.85; pIC50 [36]: 4.72; pIC50 [37]: 4.96; MTD at 336 h [38]: 1000 mg/kg; MTD at 336 h [39]: 75 mg/kg; Activity [40]: Non-Toxic; Activity [41]: Toxic; Activity [42]: Toxic; Activity [43]: Toxic; Activity [44]: Toxic; t1/2 [45]: > 8 h
